The values below come from article PMC5318439, “The Novel Toll-Like Receptor 2 Agonist SUP3 Enhances Antigen Presentation and T Cell Activation by Dendritic Cells” (Frontiers in Immunology, 2017).

Where a SMILES comes first, the peptide text is derived from it. The star is where a group is joined. X1 = CCCCCCCCCCCCCCNC(=O)OC[C@H](C*)OC(=O)NCCCCCCCCCCCCCC; Palmitoyl = CCCCCCCCCCCCCCCC(=O)*

In one assay the test system is splenic CD11b^+ cDCs. Put plainly: CD86 expression on splenic CD11b+ cDCs after i.v. administration. Type of assay: in vivo, mice. The following applies: 2 nmol per mouse i.v., 1 h. The protocol: Figure 5 SUP3 enhanced antigen presentation ability of CD11b^+ conventional dendritic cells (cDCs) and production of antibodies against thymus-dependent (TD) antigens. (A) Mice were immunized by TD antigen nitrophenyl-keyhole limpet hemocyanin (NP-KLH) (5 µg per mouse) with or without SUP3 (2 nmol per mouse), Pam3 (2 nmol per mouse), or alum (3 µg per mouse) as adjuvants, respectively. Serum IgM (nitrophenyl 30mer-captured, NP30-captured), total IgG (NP30-captured), and high affinity IgG (nitrophenyl 8mer-captured, NP8-captured) specific to NP at indicated time points were examined by ELISA. […] Three days after immunization, division of OT-II CD4^+ T cells from inguinal lymph nodes were analyzed by flow cytometry (B). Absolute numbers of proliferated OT-II CD4^+ T cells were calculated in (C). […] Cells were then thoroughly washed and cocultured with CFSE-stained OT-II CD4^+ T cells for 4 days and analyzed by flow cytometry. (D) The division of OT-II cells was measured by reduced level of CFSE-labeling. (E) Absolute numbers of proliferated T cells from (D) were calculated. (F) SUP3 (2 nmol per mouse), Pam3 (2 nmol per mouse), or PBS were i.v. injected into mice for 1 h, and splenic CD11b^+ cDCs were enriched and analyzed for CD86 expression by flow cytometry. […] The cytokines from supernatant were determined by ELISA (*p < 0.05, **p < 0.01). […]

In another assay the test system is NF-κB and MAPK pathways. As to the kind of experiment: Immunoblot of NF-κB and MAPK signaling in CD8+ cDCs. Type of assay: cell-based, mice. The following applies: 200 nM, 0–120 min, western blot. The protocol: Immunoblot assay was performed as described elsewhere ([40], [41]). Briefly, whole-cell lysates were prepared by direct lysis in SDS loading buffer. Lysates were separated by 10% SDSPAGE and transferred to a polyvinylidene fluoride membrane (Millipore IPVH00010) for probing with antibody. Antibodies against phosphorylated NF-κB p65 (p-p65) (Ser 536) (Clone 93H1), p-SAPK/JNK (Thr183/Tyr185) (Clone 81E11), SAPK/JNK (Clone 56G8), p-p38 (Thr180/Tyr182) (Clone 3D7), and p38 (Clone D13E1) were purchased from Cell Signaling Technology. Antibodies against IκBα ([…]), p-ERK (Clone E-4), and ERK (Clone K-23) were purchased from Santa Cruz Biotech. The chemiluminescence signals were captured by Amersham Image 600 system (GE Healthcare).
Figure 4 SUP3 stimulated maturation of CD8^+ conventional dendritic cells (cDCs). (A) Purified CD8^+ cDCs were treated with SUP3 (200 nM) or Pam3 (200 nM) in the presence of granulocyte-macrophage colony-stimulating factor (GM-CSF) (20 ng/mL) for 24 h. The surface expression of costimulatory and major histocompatibility complex (MHC) molecules were then analyzed by flow cytometry. Representative data from three independent experiments were shown. […] Splenic CD8^+ cDCs were enriched, and surface expression of CD40 and CD86 was analyzed by flow cytometry. […] Supernatants were harvested 24 and 48 h post-stimulation, and cytokines were measured by ELISA. […]

For the compound Pam3CSK4 [reference compound], in the assay on splenic CD11b^+ cDCs, the “CD86 on splenic CD11b+ cDC in vivo” value was “CD86 upregulation”. As for `CCCCCCCCCCCCCCCC(=O)N[C@@H](CSC[C@@H](COC(=O)NCCCCCCCCCCCCCC)OC(=O)NCCCCCCCCCCCCCC)C(=O)NCC(=O)N[C@@H](CCCCN)C(=O)N[C@@H](CCCCN)C(=O)N[C@@H](CCCCN)C(=O)O` [SUP3, (2S,5S,8S,14R,18R)-2,5,8-tris(4-aminobutyl)-4,7,10,13,21-pentaoxo-14-palmitamido-18-((tetradecylcarbamoyl)oxy)-20-oxa-16-thia-3,6,9,12,22-pentaazahexatriacontan-1-oic acid] (Palmitoyl-C(X1)GKKK-OH), the “NF-κB and MAPK signaling (p-p65, IκBα, p-ERK, p-JNK, p-p38) in CD8+ cDCs” value in the assay with NF-κB and MAPK pathways was “induced phosphorylation of p65 and degradation of IκBα and enhanced phosphorylation of ERK, JNK, and p38”. Moreover, the “CD86 on splenic CD11b+ cDC in vivo” value in the assay with splenic CD11b^+ cDCs is reported as “CD86 upregulation”.
